These results are taken from PMC7067850, “Identification of highly potent and selective inhibitor, TIPTP, of the p22phox-Rubicon axis as a therapeutic agent for rheumatoid arthritis” (Scientific Reports, 2020).

Series [1] deals with NADPH oxidase. As to the kind of experiment: NADPH oxidase activity (lucigenin-ECL) in BMDMs. It counts as cell-based, mouse. The conditions noted are these: LPS or LPS/ATP stimulated (Fig. 3c, Supplemental Fig. 5b, 5e). The method, then: Intracellular superoxide production was measured by the lucigenin (bis-N-methylacridinium nitrate)-ECL method[18],[19]. Briefly, cells lysates were allowed to equilibrate for 30 min at 37 °C in a reaction containing 50 mM phosphate buffer (pH 7.0), 1 mM EGTA, 150 mM sucrose, and a protease inhibitor mixture prior to the addition of Krebs-HEPES buffer containing lucigenin (5 μM) as the electron acceptor and NADPH (100 μM) as the electron donor. The values are expressed as relative light units per 1 × 10^5 cells.
Figure 3 TIPTP robustly suppresses LPS/ATP-mediated Rubicon-p22phox interaction and ROS-mediated inflammation. (a) Structure of the TIPTP. (b) MTT assay for cell viability. BMDMs were incubated with TIPTP for the indicated times at the indicated TIPTP concentrations (upper). WCLs were used for IB with α22phox, αRubicon, or αActin (lower). (c–f) LPS (100 ng/ml)-primed BMDMs were treated with compounds for 1 h, and then activated with ATP (1 mM) for 30 min. (c) NADPH oxidase activity. (d) FACS analysis for superoxide and hydrogen peroxide (upper). Quantitative analysis of mean fluorescence intensities of ROS (lower). (e) BMDMs were incubated with increasing concentrations of compound 1 and TIPTP (com 2) (***). IP with αRubicon, followed by IB with αp22phox, αBeclin-1, αUVRAG, αRubicon. […] (f) Culture supernatants were harvested and analyzed for cytokines by ELISA. […]

In series [2] the test system is BMDMs. As to the kind of experiment: MTT assay for cell viability. It counts as cell-based, mouse. The conditions noted are these: different concentrations and times (Fig. 3b). The method, then: The mouse macrophage cell line RAW264.7 (ATCC TIB-71; American Type Culture Collection) and HEK293T (ATCC-11268) cells were maintained in DMEM (Invitrogen) containing 10% FBS (Invitrogen), sodium pyruvate, nonessential amino acids, penicillin G (100 IU/ml), and streptomycin (100 μg/ml). Transient transfections were performed with Lipofectamine 3000 (Invitrogen), or calcium phosphate (Clontech), according to the manufacturer’s instructions. Raw264.7 stable cell lines were generated using a standard selection protocol with 2 μg/ml of puromycin. Mouse primary bone marrow derived-macrophages (BMDMs) were isolated from C57BL/6 mice and cultured in DMEM for 3–5 days in the presence of 25 ng/ml recombinant macrophage colony stimulating factor (R&D Systems, 416-ML, Minneapolis, MN, USA), as described previously. Human adherent monocytes were prepared from PBMCs donated by healthy subjects, as described previously.
Figure 3 TIPTP robustly suppresses LPS/ATP-mediated Rubicon-p22phox interaction and ROS-mediated inflammation. (a) Structure of the TIPTP. (b) MTT assay for cell viability. BMDMs were incubated with TIPTP for the indicated times at the indicated TIPTP concentrations (upper). WCLs were used for IB with α22phox, αRubicon, or αActin (lower). […] Quantitative analysis of mean fluorescence intensities of ROS (lower). […] (f) Culture supernatants were harvested and analyzed for cytokines by ELISA. […]

For the compound `C[C@@H](Oc1cccc(-n2cc3c(n2)CCCC3)c1)C(=O)Nc1nnc(C(F)(F)F)s1` [TIPTP, (R)-2-(3-(4,5,6,7-tetrahydro-2H-indazol-2-yl)phenoxy)-N-(5-(trifluoromethyl)-1,3,4-thiadiazol-2-yl)propanamide], the NOX activity entry in series [1] was “inhibited in a dose-dependent manner”. Further, the “cell viability of BMDMs” value in series [2] is “did not induce any significant change”.
